# ChEMBL document CHEMBL1649397, “Synthesis of a-factor peptide from Saccharomyces cerevisiae and photoactive analogues via Fmoc solid phase methodology” (Bioorg Med Chem, 2011)
# Calls of active or inactive are those of the source. No cut-off for these calls is given here. Where a SMILES comes first, the peptide text is derived from it. The star is where a group is joined. X3 = C/C(=C/C*)CC/C=C(\C)COCc1cccc(C(=O)c2ccccc2)c1; X2 = C/C(=C/C*)COCc1cccc(C(=O)c2ccccc2)c1; X1 = CC(C)=CCC/C(C)=C/CC/C(C)=C\C*
# Columns and labels:
# Type in all cases: functional, organism-based
# Saccharomyces cerevisiae [1] = assay: Growth arrest against Saccharomyces cerevisiae RC757 assessed as zone of inhibition after overnight incubation
# Saccharomyces cerevisiae [2] = assay: Growth arrest against Saccharomyces cerevisiae LM102 assessed as zone of inhibition after overnight incubation
# Saccharomyces cerevisiae [3] = assay: Growth arrest against Saccharomyces cerevisiae RC757 assessed as zone of inhibition at 0.25 ng after overnight incubation
# Saccharomyces cerevisiae [4] = assay: Growth arrest against Saccharomyces cerevisiae RC757 assessed as zone of inhibition at 0.50 ng after overnight incubation
smiles,measurement,setting,value
CC[C@H](C)[C@H](NC(=O)[C@@H](NC(=O)[C@@H](N)Cc1ccc(O)cc1)[C@@H](C)CC)C(=O)N[C@@H](CCCCN)C(=O)NCC(=O)N[C@H](C(=O)N[C@@H](Cc1ccccc1)C(=O)N[C@@H](Cc1c[nH]c2ccccc12)C(=O)N[C@@H](CC(=O)O)C(=O)N1CCC[C@H]1C(=O)N[C@@H](C)C(=O)N[C@@H](CSC/C=C(/C)CC/C=C(\C)CCC=C(C)C)C(=O)OC)C(C)C (H-YIIKGVFWDPAC(X1)-OMe),inhibition zone (IZ),Saccharomyces cerevisiae [1],Active
same,inhibition zone (IZ),Saccharomyces cerevisiae [2],inactive
CC[C@H](C)[C@H](NC(=O)[C@@H](NC(=O)[C@@H](N)Cc1ccc(O)cc1)[C@@H](C)CC)C(=O)N[C@@H](CCCCN)C(=O)NCC(=O)N[C@H](C(=O)N[C@@H](Cc1ccccc1)C(=O)N[C@@H](Cc1c[nH]c2ccccc12)C(=O)N[C@@H](CC(=O)O)C(=O)N1CCC[C@H]1C(=O)N[C@@H](C)C(=O)N[C@@H](CSC/C=C(/C)COCc1cccc(C(=O)c2ccccc2)c1)C(=O)OC)C(C)C (H-YIIKGVFWDPAC(X2)-OMe),inhibition zone (IZ),Saccharomyces cerevisiae [3],Active
CC[C@H](C)[C@H](NC(=O)[C@@H](NC(=O)[C@@H](N)Cc1ccc(O)cc1)[C@@H](C)CC)C(=O)N[C@@H](CCCCN)C(=O)NCC(=O)N[C@H](C(=O)N[C@@H](Cc1ccccc1)C(=O)N[C@@H](Cc1c[nH]c2ccccc12)C(=O)N[C@@H](CC(=O)O)C(=O)N1CCC[C@H]1C(=O)N[C@@H](C)C(=O)N[C@@H](CSC/C=C(/C)CC/C=C(\C)COCc1cccc(C(=O)c2ccccc2)c1)C(=O)OC)C(C)C (H-YIIKGVFWDPAC(X3)-OMe),inhibition zone (IZ),Saccharomyces cerevisiae [4],Active
